Measured values taken from the NIST ThermoML archive (doi:10.1021/acs.jced.5b00156).

Columns and labels:
[1] = 101.33 kPa, Liquid; for viscosity: Concentric cylinders viscometry; for mass density: vibrating tube
[2] = refractive index (Na D-line) (dimensionless); conditions: 101.33 kPa, Liquid, Standard Abbe refractometry

COC(=O)c1ccccc1C(=O)OC [dimethyl 1,2-benzenedicarboxylate]
Conditions	mass density, [1] [kg/m3]	refractive index, [2]	viscosity, [1] [mPa·s]
288.15 K	1196.23	1.51708	23.53
293.15 K	1191.54	1.51494	17.7
298.15 K	1186.87	1.51286	13.93
303.15 K	1182.2	1.51083	11.15
308.15 K	1177.55	1.50885	9.123
313.15 K	1172.91	1.50693	7.612
318.15 K	1168.28	1.50507	6.453
323.15 K	1163.65	1.50303	5.578

COC(=O)CCCCC(=O)OC [dimethyl 1,6-hexanedioate]
Conditions	mass density, [1] [kg/m3]	refractive index, [2]	viscosity, [1] [mPa·s]
288.15 K	1066.79	1.43082	3.778
293.15 K	1061.92	1.42876	3.313
298.15 K	1057.05	1.42669	2.937
303.15 K	1052.18	1.42463	2.629
308.15 K	1047.3	1.42255	2.366
313.15 K	1042.41	1.42048	2.143
318.15 K	1037.52	1.41835	1.953
323.15 K	1032.62	1.41631	1.794
